Experimental data taken from the NIST ThermoML archive (doi:10.1021/acs.jced.8b01146).
Several values for one entry are separate records, joined by “and”; a condition that tells them apart may be missing. Equal values may be shown once.

Columns and labels:
[1] = xn = mol fraction of the nth substance listed; conditions: 100 kPa, Liquid, Vibrating tube method
[2] = excess molar enthalpy (molar enthalpy of mixing); xn = mol fraction of the nth substance listed; conditions: 100 kPa, Liquid, Calvet calorimetry

CCC1CCC(=O)O1 (stereo not drawn) [2(3H)-furanone, 5-ethyldihydro-] + O
Conditions | excess molar enthalpy, [2] | mass density, [1]
288.15 K, x1 = 0.000808 | -0.0011 kcal/mol | 999.463 kg/m3 and 999.462 kg/m3
288.15 K, x1 = 0.001615 | -0.00217 kcal/mol | 999.823 kg/m3
288.15 K, x1 = 0.001616 | -0.00217 kcal/mol | 999.824 kg/m3
288.15 K, x1 = 0.002421 | -0.00322 kcal/mol | 1000.19 kg/m3
288.15 K, x1 = 0.002422 | -0.00321 kcal/mol | 1000.19 kg/m3
288.15 K, x1 = 0.003226 | -0.00418 kcal/mol | 1000.55 kg/m3 and 1000.54 kg/m3
288.15 K, x1 = 0.004029 | -0.00515 kcal/mol | 1000.9 kg/m3
288.15 K, x1 = 0.004831 | -0.00608 kcal/mol | 1001.26 kg/m3
288.15 K, x1 = 0.004832 | -0.00607 kcal/mol | 1001.26 kg/m3
298.15 K, x1 = 0.000808 | -0.000746 kcal/mol and -0.000743 kcal/mol | 997.357 kg/m3 and 997.355 kg/m3
298.15 K, x1 = 0.001615 | -0.00146 kcal/mol | 997.666 kg/m3
298.15 K, x1 = 0.002421 | -0.00215 kcal/mol | 997.974 kg/m3
298.15 K, x1 = 0.002422 | -0.00215 kcal/mol | 997.975 kg/m3
298.15 K, x1 = 0.003226 | -0.00277 kcal/mol and -0.00278 kcal/mol | 998.276 kg/m3
298.15 K, x1 = 0.004029 | -0.00339 kcal/mol and -0.0034 kcal/mol | 998.58 kg/m3
298.15 K, x1 = 0.004831 | -0.004 kcal/mol | 998.888 kg/m3
298.15 K, x1 = 0.004832 | -0.00401 kcal/mol | 998.888 kg/m3
308.15 K, x1 = 0.000809 | -0.000394 kcal/mol | 994.296 kg/m3
308.15 K, x1 = 0.001616 | -0.000758 kcal/mol | 994.558 kg/m3
308.15 K, x1 = 0.001617 | -0.000762 kcal/mol | 994.559 kg/m3
308.15 K, x1 = 0.002422 | -0.00109 kcal/mol | 994.819 kg/m3
308.15 K, x1 = 0.002423 | -0.0011 kcal/mol | 994.819 kg/m3
308.15 K, x1 = 0.003227 | -0.00141 kcal/mol | 995.082 kg/m3
308.15 K, x1 = 0.003228 | -0.0014 kcal/mol | 995.075 kg/m3
308.15 K, x1 = 0.004031 | -0.00169 kcal/mol | 995.334 kg/m3
308.15 K, x1 = 0.004032 | -0.00169 kcal/mol | 995.334 kg/m3
308.15 K, x1 = 0.004834 | -0.00193 kcal/mol | 995.586 kg/m3
308.15 K, x1 = 0.004835 | -0.00196 kcal/mol | 995.586 kg/m3
318.15 K, x1 = 0.000808 | -4.92e-05 kcal/mol | 990.434 kg/m3
318.15 K, x1 = 0.001615 | -7.07e-05 kcal/mol | 990.653 kg/m3
318.15 K, x1 = 0.001616 | -7.12e-05 kcal/mol | 990.654 kg/m3
318.15 K, x1 = 0.002421 | -6.91e-05 kcal/mol | 990.873 kg/m3
318.15 K, x1 = 0.002422 | -6.79e-05 kcal/mol | 990.873 kg/m3
318.15 K, x1 = 0.003226 | -4.04e-05 kcal/mol | 991.088 kg/m3
318.15 K, x1 = 0.003227 | -4.28e-05 kcal/mol | 991.089 kg/m3
318.15 K, x1 = 0.004029 | 8.13e-06 kcal/mol | 991.301 kg/m3
318.15 K, x1 = 0.00403 | 1.51e-05 kcal/mol | 991.301 kg/m3
318.15 K, x1 = 0.004832 | 8.6e-05 kcal/mol | 991.512 kg/m3
318.15 K, x1 = 0.004833 | 9.01e-05 kcal/mol | 991.512 kg/m3

O=C1CCCO1 [γ-butyrolactone] + O
Conditions | excess molar enthalpy, [2] | mass density, [1]
288.15 K, x1 = 0.00118 | -0.000825 kcal/mol | 999.977 kg/m3
288.15 K, x1 = 0.001181 | -0.000827 kcal/mol | 999.978 kg/m3
288.15 K, x1 = 0.002358 | -0.00163 kcal/mol | 1000.85 kg/m3
288.15 K, x1 = 0.003533 | -0.0024 kcal/mol | 1001.72 kg/m3
288.15 K, x1 = 0.003534 | -0.0024 kcal/mol | 1001.72 kg/m3
288.15 K, x1 = 0.004705 | -0.00315 kcal/mol | 1002.58 kg/m3
288.15 K, x1 = 0.004706 | -0.00315 kcal/mol | 1002.59 kg/m3
288.15 K, x1 = 0.005874 | -0.00388 kcal/mol | 1003.43 kg/m3
288.15 K, x1 = 0.005876 | -0.00387 kcal/mol | 1003.43 kg/m3
288.15 K, x1 = 0.007042 | -0.00458 kcal/mol | 1004.27 kg/m3
288.15 K, x1 = 0.007044 | -0.00458 kcal/mol | 1004.28 kg/m3
298.15 K, x1 = 0.001179 | -0.000598 kcal/mol | 997.864 kg/m3
298.15 K, x1 = 0.002356 | -0.00117 kcal/mol | 998.672 kg/m3
298.15 K, x1 = 0.00353 | -0.00171 kcal/mol | 999.474 kg/m3
298.15 K, x1 = 0.004701 | -0.00224 kcal/mol | 1000.27 kg/m3
298.15 K, x1 = 0.005869 | -0.00275 kcal/mol | 1001.06 kg/m3
298.15 K, x1 = 0.007036 | -0.00324 kcal/mol | 1001.84 kg/m3
308.15 K, x1 = 0.001179 | -0.000363 kcal/mol and -0.000361 kcal/mol | 994.794 kg/m3 and 994.797 kg/m3
308.15 K, x1 = 0.002356 | -0.0007 kcal/mol and -0.000698 kcal/mol | 995.554 kg/m3 and 995.552 kg/m3
308.15 K, x1 = 0.00353 | -0.00101 kcal/mol | 996.301 kg/m3
308.15 K, x1 = 0.003531 | -0.00101 kcal/mol | 996.302 kg/m3
308.15 K, x1 = 0.004702 | -0.00131 kcal/mol | 997.038 kg/m3
308.15 K, x1 = 0.004703 | -0.0013 kcal/mol | 997.039 kg/m3
308.15 K, x1 = 0.00587 | -0.00158 kcal/mol | 997.774 kg/m3
308.15 K, x1 = 0.005871 | -0.00158 kcal/mol | 997.78 kg/m3
308.15 K, x1 = 0.007038 | -0.00184 kcal/mol | 998.505 kg/m3 and 998.496 kg/m3
318.15 K, x1 = 0.001181 | -0.000116 kcal/mol and -0.000115 kcal/mol | 990.926 kg/m3 and 990.925 kg/m3
318.15 K, x1 = 0.002359 | -0.000209 kcal/mol and -0.000208 kcal/mol | 991.631 kg/m3 and 991.634 kg/m3
318.15 K, x1 = 0.003534 | -0.000283 kcal/mol and -0.000286 kcal/mol | 992.336 kg/m3 and 992.333 kg/m3
318.15 K, x1 = 0.004706 | -0.000346 kcal/mol | 993.03 kg/m3
318.15 K, x1 = 0.004707 | -0.000343 kcal/mol | 993.03 kg/m3
318.15 K, x1 = 0.005875 | -0.00039 kcal/mol | 993.721 kg/m3
318.15 K, x1 = 0.005876 | -0.000386 kcal/mol | 993.713 kg/m3
318.15 K, x1 = 0.007043 | -0.000418 kcal/mol | 994.396 kg/m3
318.15 K, x1 = 0.007044 | -0.000413 kcal/mol | 994.396 kg/m3
